Laboratory results from ChEMBL document CHEMBL5316329, “Structure-Based Optimization of 2,4,5-Trisubstituted Pyrimidines as Potent HIV-1 Non-Nucleoside Reverse Transcriptase Inhibitors: Exploiting the Tolerant Regions of the Non-Nucleoside Reverse Transcriptase Inhibitors' Binding Pocket” (J Med Chem, 2023).

How the values were obtained:
[1] = tested on: Human immunodeficiency virus 1; test: Antiviral activity against NNRTI-resistant HIV-1 RES056 infected in human MT4 cells assessed as virus-induced cytopathicity treated for 5 days by MTT assay; assay type: functional, organism-based; conditions: Human immunodeficiency virus 1, RES056, MT4, 120 h
[2] = tested on: Human immunodeficiency virus 1; test: Antiviral activity against HIV-1 F227L/V106A mutant infected in human MT4 cells assessed as virus-induced cytopathicity treated for 5 days by MTT assay; assay type: functional, organism-based; conditions: Human immunodeficiency virus 1, MT4, 120 h; read-out: EC50
[3] = Cytotoxicity against human MT4 cells assessed as reduction in cell viability treated for 5 days by MTT assay; assay type: toxicity, cell-based; conditions: time 5 day
[4] = tested on: Human immunodeficiency virus 1; test: Antiviral activity against HIV-1 E138K mutant infected in human MT4 cells assessed as virus-induced cytopathicity treated for 5 days by MTT assay; assay type: functional, organism-based; conditions: Human immunodeficiency virus 1, MT4, 120 h; read-out: EC50
[5] = tested on: Human immunodeficiency virus 1; test: Antiviral activity against HIV-1 harboring Y188L mutant infected in human MT4 cells assessed as virus-induced cytopathicity treated for 5 days by MTT assay; assay type: functional, organism-based; conditions: Human immunodeficiency virus 1, MT4, 120 h; read-out: EC50
[6] = Selectivity index, ratio of CC50 for human MT4 cells to EC50 for NNRTI-resistant HIV-1 RES056 infected in human MT4 cells; assay type: toxicity, cell-based; conditions: read-out: Selectivity Index
[7] = tested on: Human immunodeficiency virus 1; test: Antiviral activity against HIV-1 harboring K103N mutant infected in human MT4 cells assessed as virus-induced cytopathicity treated for 5 days by MTT assay; assay type: functional, organism-based; conditions: Human immunodeficiency virus 1, MT4, 120 h; read-out: EC50
[8] = tested on: Human immunodeficiency virus 1; test: Antiviral activity against HIV-1 harboring L100I mutant infected in human MT4 cells assessed as virus-induced cytopathicity treated for 5 days by MTT assay; assay type: functional, organism-based; conditions: Human immunodeficiency virus 1, MT4, 120 h
[9] = tested on: Human immunodeficiency virus 1; test: Antiviral activity against HIV-1 harboring Y181C mutant infected in human MT4 cells assessed as virus-induced cytopathicity treated for 5 days by MTT assay; assay type: functional, organism-based; conditions: Human immunodeficiency virus 1, MT4, 120 h
[10] = biological target: Human immunodeficiency virus type 1 reverse transcriptase (Human immunodeficiency virus 1, UniProt Q72547); test: Inhibition of wild-type HIV-1 reverse transcriptase assessed as inhibition of biotin-dUTP incorporation
[11] = tested on: Human immunodeficiency virus 1; test: Antiviral activity against wild-type HIV-1 IIIB infected in human MT4 cells assessed as virus-induced cytopathicity treated for 5 days by MTT assay; assay type: functional, organism-based; conditions: Human immunodeficiency virus 1, IIIB, MT4, 120 h
[12] = Selectivity index, ratio of CC50 for human MT4 cells to EC50 for wild-type HIV-1 IIIB infected in human MT4 cells; assay type: toxicity, cell-based; conditions: read-out: Selectivity Index

Compound	EC50 [1]	EC50 [2]	CC50 at 120 h [3]	EC50 [4]	EC50 [5]	selectivity ratio [6]	EC50 [7]	EC50 ([8]; read-out: EC50)	EC50 ([9]; read-out: EC50)	IC50 [10]	EC50 [11]	selectivity ratio [12]	EC50 ([8]; read-out: pEC50 (converted))	EC50 ([9]; read-out: pEC50 (converted))
Cc1cc(/C=C/C#N)cc(C)c1Oc1nc(NC2CCN(Cc3ccc(C(N)=O)cc3)CC2)ncc1-c1cccc(O)c1	35.2 nM	13.1 nM	36900 nM	21.1 nM	39.3 nM	1050	5.31 nM	11.6 nM	9.7 nM	88 nM	4.62 nM	8000		
Cc1cc(C#N)cc(C)c1Oc1nc(Nc2ccc(C#N)cc2)nc(N)c1Br [ETRAVIRINE]	52.2 nM		> 4590 nM					11.7 nM	16.6 nM				11.7 nM	17 nM
Cc1cc(/C=C/C#N)cc(C)c1Oc1nc(NC2CCN(Cc3ccc(C(N)=O)cc3)CC2)ncc1-c1ccccc1O	123 nM		11200 nM			91				178 nM	5.99 nM	1870		
Cc1cc(/C=C/C#N)cc(C)c1Cc1nc(NC2CCN(Cc3ccc(C(N)=O)cc3)CC2)ncc1-c1cnc(N)nc1	68.6 nM		3070 nM			45				157 nM	6.82 nM	451		
Cc1cc(/C=C/C#N)cc(C)c1Oc1nc(NC2CCN(Cc3ccc(C(N)=O)cc3)CC2)ncc1-c1ccccc1F	192 nM		10500 nM			55				154 nM	7.4 nM	1420		
Cc1cc(/C=C/C#N)cc(C)c1Oc1nc(NC2CCN(Cc3ccc(S(N)(=O)=O)cc3)CC2)ncc1-c1ccc2c(c1)OCO2	47 nM	35.7 nM	6400 nM	40.5 nM	47.8 nM	136	6.3 nM	10.6 nM	10.7 nM	122 nM	5.48 nM	1170		
Cc1cc(/C=C/C#N)cc(C)c1Oc1nc(NC2CCN(Cc3ccc(S(N)(=O)=O)cc3)CC2)ncc1-c1ccc(O)cc1	26.1 nM	12.7 nM	4440 nM	7.65 nM	31.3 nM	170	4.13 nM	3.68 nM	7.77 nM	91 nM	3.83 nM	1160		
Cc1cc(/C=C/C#N)cc(C)c1Oc1nc(NC2CCN(Cc3ccc(S(N)(=O)=O)cc3)CC2)ncc1-c1ccccc1N	91 nM		5490 nM			60				159 nM	5.76 nM	953		
Cc1cc(/C=C/C#N)cc(C)c1Oc1nc(NC2CCN(Cc3ccc(S(N)(=O)=O)cc3)CC2)ncc1-c1cccc(F)c1	132 nM		14200 nM			108				194 nM	9.55 nM	1490		
Cc1cc(/C=C/C#N)cc(C)c1Oc1nc(NC2CCN(Cc3ccc(S(C)(=O)=O)cc3)CC2)ncc1-c1ccc(O)cc1	50.9 nM		5410 nM			106				97 nM	5.67 nM	956		
Cc1cc(/C=C/C#N)cc(C)c1Oc1nc(NC2CCN(Cc3ccc(C(N)=O)cc3)CC2)ncc1-c1ccc(F)cc1	53.5 nM		8230 nM			154				130 nM	5.15 nM	1600		
Cc1cc(/C=C/C#N)cc(C)c1Oc1nc(NC2CCN(Cc3ccc(C(N)=O)cc3)CC2)ncc1-c1cccc(F)c1	113 nM		11300 nM			100				163 nM	6.11 nM	1850		
Cc1cc(/C=C/C#N)cc(C)c1Oc1nc(NC2CCN(Cc3ccc(S(C)(=O)=O)cc3)CC2)ncc1-c1cccc(O)c1	68 nM		4350 nM			64				164 nM	5.76 nM	756		
Cc1cc(/C=C/C#N)cc(C)c1Oc1nc(NC2CCN(Cc3ccc(S(N)(=O)=O)cc3)CC2)ncc1-c1ccc(N)cc1	23.4 nM	9.02 nM	3810 nM	8.93 nM	24.9 nM	185	3.85 nM	3.23 nM	5.37 nM	97 nM	3.64 nM	1050		
Cc1cc(/C=C/C#N)cc(C)c1Oc1nc(NC2CCN(Cc3ccc(S(C)(=O)=O)cc3)CC2)ncc1-c1ccc(F)cc1	101 nM		4340 nM			43				145 nM	5.09 nM	853		
Cc1cc(/C=C/C#N)cc(C)c1Oc1nc(NC2CCN(Cc3ccc(S(C)(=O)=O)cc3)CC2)ncc1-c1ccccc1N	109 nM		5110 nM			47				178 nM	5.89 nM	868		
CC(=O)c1ccc(-c2cnc(NC3CCN(Cc4ccc(S(C)(=O)=O)cc4)CC3)nc2Oc2c(C)cc(/C=C/C#N)cc2C)cc1	93.4 nM		8460 nM			91				199 nM	5.48 nM	1540		
Cc1cc(/C=C/C#N)cc(C)c1Cc1nc(NC2CCN(Cc3ccc(S(C)(=O)=O)cc3)CC2)ncc1-c1cnc(N)nc1	29.8 nM		1730 nM			58				108 nM	4.16 nM	416		
Cc1cc(/C=C/C#N)cc(C)c1Cc1nc(NC2CCN(Cc3ccc(S(N)(=O)=O)cc3)CC2)ncc1-c1cnc(N)nc1	32.3 nM		2740 nM			85				85 nM	4.44 nM	617		
Cc1cc(/C=C/C#N)cc(C)c1Oc1nc(NC2CCN(Cc3ccc(S(N)(=O)=O)cc3)CC2)ncc1-c1ccc(F)cc1	67.8 nM		9630 nM			142				137 nM	4.98 nM	1930		
Cc1cc(/C=C/C#N)cc(C)c1Oc1nc(NC2CCN(Cc3ccc(S(N)(=O)=O)cc3)CC2)ncc1-c1ccccc1O	172 nM		12500 nM			72				205 nM	9.15 nM	1370		
CC(=O)c1ccc(-c2cnc(NC3CCN(Cc4ccc(C(N)=O)cc4)CC3)nc2Oc2c(C)cc(/C=C/C#N)cc2C)cc1	55.5 nM		11100 nM			201				175 nM	5.16 nM	2160		
Cc1cc(/C=C/C#N)cc(C)c1Oc1nc(NC2CCN(Cc3ccc(C(N)=O)cc3)CC2)ncc1-c1ccc(O)cc1	150 nM		21300 nM			142				171 nM	5.66 nM	3760		
Cc1cc(/C=C/C#N)cc(C)c1Oc1nc(NC2CCN(Cc3ccc(S(C)(=O)=O)cc3)CC2)ncc1-c1cccc(N)c1	52.8 nM		4120 nM			78				136 nM	6.05 nM	682		
Cc1cc(/C=C/C#N)cc(C)c1Oc1nc(NC2CCN(Cc3ccc(S(C)(=O)=O)cc3)CC2)ncc1-c1ccc2c(c1)OCO2	59 nM		4290 nM			73				161 nM	5.53 nM	776		
Cc1cc(/C=C/C#N)cc(C)c1Oc1nc(NC2CCN(Cc3ccc(C(N)=O)cc3)CC2)ncc1-c1ccccc1N	49.3 nM		11700 nM			239				122 nM	4.4 nM	2680		
Cc1cc(/C=C/C#N)cc(C)c1Oc1nc(NC2CCN(Cc3ccc(S(C)(=O)=O)cc3)CC2)ncc1-c1ccccc1O	376 nM		6730 nM			18				328 nM	9.04 nM	745		
Cc1cc(/C=C/C#N)cc(C)c1Oc1nc(NC2CCN(Cc3ccc(S(N)(=O)=O)cc3)CC2)ncc1-c1ccccc1F	101 nM		10900 nM			107				130 nM	3.96 nM	2760		
Cc1cc(/C=C/C#N)cc(C)c1Oc1nc(NC2CCN(Cc3ccc(S(C)(=O)=O)cc3)CC2)ncc1-c1cccc(F)c1	123 nM		6650 nM			54				228 nM	7.26 nM	916		
Cc1cc(/C=C/C#N)cc(C)c1Oc1nc(NC2CCN(Cc3ccc(S(C)(=O)=O)cc3)CC2)ncc1-c1ccccc1F	183 nM		11600 nM			63				161 nM	6.81 nM	1710		
